Target: T1, human FFAR1 (GPR40) (Homo sapiens, UniProt O14842)
T1 construct: Flag; expressed in transfected cells; host or cells: HEK293T
Assay: NFAT-RE-based reporter gene activity assay (Dual-Glo luciferase) for GPR40 agonistic activity in co-transfected HEK293T cells
Type: cell-based
Conditions: 4-hour treatment; for Efficacy (%): class symbols
Summary of the method: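 Agonism read as NFAT-RE-driven firefly luciferase over Renilla control (Dual-Glo) after 4 h compound exposure, top concentration 1 µM, 10 half-log steps.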

T1 sequence (O14842 whole entry): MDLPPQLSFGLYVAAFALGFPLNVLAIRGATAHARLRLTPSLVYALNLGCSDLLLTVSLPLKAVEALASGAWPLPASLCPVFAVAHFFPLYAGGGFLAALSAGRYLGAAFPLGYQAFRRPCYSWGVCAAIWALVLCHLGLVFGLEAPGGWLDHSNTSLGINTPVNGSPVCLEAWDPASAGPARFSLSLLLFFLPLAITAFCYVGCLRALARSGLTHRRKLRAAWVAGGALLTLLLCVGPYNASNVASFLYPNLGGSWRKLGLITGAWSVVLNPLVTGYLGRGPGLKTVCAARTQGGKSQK

| SMILES | EC50 | Efficacy (%) |
| --- | --- | --- |
| COc1ccc(F)c(N2CCC(c3oc4cc([C@@H](CC(=O)O)C5CC5)ccc4c3-c3cccc(OC(F)(F)F)c3)CC2)c1 [Compound 173] | 100 to 500 nM | ††† (Efficacy (%) > 150) |
| COc1ccc(F)c(N2CCC(c3oc4cc(C(CC(=O)O)C5CC5)ccc4c3-c3cccc(C#N)c3)CC2)c1 (stereo not shown) [Compound 174] | 100 to 500 nM | †† (150 ≥ Efficacy (%) > 100) |
| COc1ccc(F)c(N2CCC(c3oc4cc([C@@H](CC(=O)O)C5CC5)ccc4c3-c3ccc(C(C)O)cc3)CC2)c1 (stereo partly shown) [Compound 175] | > 500 nM | †† (150 ≥ Efficacy (%) > 100) |
| COc1ccc(F)c(N2CCC(c3oc4cc([C@@H](CC(=O)O)C5CC5)ccc4c3-c3ccc(C(C)OC)cc3)CC2)c1 (stereo partly shown) [Compound 176] | 100 to 500 nM | †† (150 ≥ Efficacy (%) > 100) |
| COc1ccc(F)c(N2CCC(c3oc4cc([C@@H](CC(=O)O)C5CC5)ccc4c3-c3ccc(C(C)(C)O)cc3)CC2)c1 [Compound 177] | 100 to 500 nM | †† (150 ≥ Efficacy (%) > 100) |
| COc1ccc(F)c(N2CCC(c3oc4cc(C(CC(=O)O)C5CC5)ccc4c3-c3cccc(F)c3)CC2)c1 (stereo not shown) [Compound 178] | 100 to 500 nM | †† (150 ≥ Efficacy (%) > 100) |
| COc1ccc(-c2c(C3CCN(c4cc(OC)ccc4F)CC3)oc3cc([C@@H](CC(=O)O)C4CC4)ccc23)cc1 [Compound 179] | 100 to 500 nM | ††† (Efficacy (%) > 150) |
| COc1ccc(F)c(N2CCC(c3oc4cc(C(CC(=O)O)C5CC5)ccc4c3-c3ccc(SC)cc3)CC2)c1 (stereo not shown) [Compound 181] | 100 to 500 nM | †† (150 ≥ Efficacy (%) > 100) |
| COc1ccc(F)c(N2CCC(c3oc4cc(C(CC(=O)O)C5CC5)ccc4c3-c3ccc(S(=O)(=O)C(C)C)cc3)CC2)c1 (stereo not shown) [Compound 183] | 100 to 500 nM | †† (150 ≥ Efficacy (%) > 100) |
| COc1ccc(F)c(N2CCC(c3oc4cc(C(CC(=O)O)C5CC5)ccc4c3-c3ccc(NC(C)C)cc3)CC2)c1 (stereo not shown) [Compound 184] | 100 to 500 nM | † (100 ≥ Efficacy (%) > 50) |
| COc1ccc(F)c(N2CCC(c3oc4cc(C(CC(=O)O)C5CC5)ccc4c3-c3ccc(N(C)C(C)C)cc3)CC2)c1 (stereo not shown) [Compound 185] | 100 to 500 nM | †† (150 ≥ Efficacy (%) > 100) |
| COc1ccc(F)c(N2CCC(c3oc4cc(C(CC(=O)O)C5CC5)ccc4c3-c3ccc(N(C(C)=O)C(C)C)cc3)CC2)c1 (stereo not shown) [Compound 186] | 100 to 500 nM | † (100 ≥ Efficacy (%) > 50) |
| COc1ccc(F)c(N2CCC(c3oc4cc(C(CC(=O)O)C5CC5)ccc4c3-c3cccc(NC(C)C)c3)CC2)c1 (stereo not shown) [Compound 187] | 100 to 500 nM | †† (150 ≥ Efficacy (%) > 100) |
| COc1ccc(F)c(N2CCC(c3oc4cc(C(CC(=O)O)C5CC5)ccc4c3-c3cccc(NCC(C)(C)C)c3)CC2)c1 (stereo not shown) [Compound 188] | 100 to 500 nM | †† (150 ≥ Efficacy (%) > 100) |
| COc1ccc(F)c(N2CCC(c3oc4cc(C(CC(=O)O)C5CC5)ccc4c3-c3cccc(N(CC(C)(C)C)C(C)=O)c3)CC2)c1 (stereo not shown) [Compound 190] | 100 to 500 nM | †† (150 ≥ Efficacy (%) > 100) |
| COc1ccc(F)c(N2CCC(c3oc4cc(C(CC(=O)O)C5CC5)ccc4c3-c3cccc(N(C(C)=O)C(C)C)c3)CC2)c1 (stereo not shown) [Compound 191] | 100 to 500 nM | †† (150 ≥ Efficacy (%) > 100) |
| COc1ccc(F)c(N2CCC(c3oc4cc(C(CC(=O)O)C5CC5)ccc4c3-c3cccc(N4CCCC4(C)C)c3)CC2)c1 (stereo not shown) [Compound 192] | 100 to 500 nM | †† (150 ≥ Efficacy (%) > 100) |
| COc1ccc(F)c(N2CCC(c3oc4cc(C(CC(=O)O)C5CC5)ccc4c3-c3cccc(-n4cccn4)c3)CC2)c1 (stereo not shown) [Compound 193] | 100 to 500 nM | †† (150 ≥ Efficacy (%) > 100) |
| COc1ccc(F)c(N2CCC(c3oc4cc([C@@H](CC(=O)O)C5CC5)ccc4c3-c3ccc(C(=O)NCC(C)(C)C)cc3)CC2)c1 [Compound 198] | 100 to 500 nM | †† (150 ≥ Efficacy (%) > 100) |
| COc1ccc(F)c(N2CCC(c3oc4cc(C(CC(=O)O)C5CC5)ccc4c3-c3ccc(C(=O)N4CCCC4)cc3)CC2)c1 (stereo not shown) [Compound 200] | 100 to 500 nM | †† (150 ≥ Efficacy (%) > 100) |
| COc1ccc(F)c(N2CCC(c3oc4cc(C(CC(=O)O)C5CC5)ccc4c3-c3ccc(C(=O)N(C)CC(C)(C)C)cc3)CC2)c1 (stereo not shown) [Compound 202] | 100 to 500 nM | †† (150 ≥ Efficacy (%) > 100) |
| COc1ccc(Cl)c(N2CCC(c3oc4cc(C(CC(=O)O)C5CC5)ccc4c3-c3cccc(C(C)(C)C)c3)CC2)c1 (stereo not shown) [Compound 203] | 100 to 500 nM | † (100 ≥ Efficacy (%) > 50) |
| COc1cc(OC)cc(N2CCC(c3oc4cc(C(CC(=O)O)C5CC5)ccc4c3-c3ccc(C(C)(C)C)cc3)CC2)c1 (stereo not shown) [Compound 205] | 100 to 500 nM | † (100 ≥ Efficacy (%) > 50) |
| COc1cc(N2CCC(c3oc4cc(C(CC(=O)O)C5CC5)ccc4c3-c3ccc(C(C)(C)C)cc3)CC2)ccc1F (stereo not shown) [Compound 206] | 100 to 500 nM | †† (150 ≥ Efficacy (%) > 100) |

| SMILES | EC50 | Efficacy (%) |
| --- | --- | --- |
| CC(C)(C)c1ccc(-c2c(C3CCN(c4ccc5c(c4)OCC5)CC3)oc3cc(C(CC(=O)O)C4CC4)ccc23)cc1 (stereo not shown) [Compound 208] | 100 to 500 nM | ††† (Efficacy (%) > 150) |
| CC(C)(C)c1ccc(-c2c(C3CCN(c4ccc5ccoc5c4)CC3)oc3cc(C(CC(=O)O)C4CC4)ccc23)cc1 (stereo not shown) [Compound 209] | 100 to 500 nM | †† (150 ≥ Efficacy (%) > 100) |
| Cc1cccc(-c2c(C3CCN(c4ccc5c(c4)OCO5)CC3)oc3cc(C(CC(=O)O)C4CC4)ccc23)c1 (stereo not shown) [Compound 210] | 100 to 500 nM | †† (150 ≥ Efficacy (%) > 100) |
| COc1cccc(-c2c(C3CCN(c4ccc5c(c4)OCO5)CC3)oc3cc(C(CC(=O)O)C4CC4)ccc23)c1 (stereo not shown) [Compound 211] | 100 to 500 nM | ††† (Efficacy (%) > 150) |
| CC(C)(C)c1ccc(-c2c(C3CCN(c4ccc5c(c4)OCO5)CC3)oc3cc(C(CC(=O)O)C4CC4)ccc23)cc1 (stereo not shown) [Compound 212] | 100 to 500 nM | †† (150 ≥ Efficacy (%) > 100) |
| CC(C)(C)c1ccc(-c2c(C3CCN(c4ccc5c(c4)OCO5)CC3)oc3cc([C@@H](CC(=O)O)C4CC4)ccc23)cc1 [Compound 213] | 10 to 100 nM | †† (150 ≥ Efficacy (%) > 100) |
| CC(C)(C)c1ccc(-c2c(C3CCN(c4ccc5ncoc5c4)CC3)oc3cc(C(CC(=O)O)C4CC4)ccc23)cc1 (stereo not shown) [Compound 214] | 100 to 500 nM | † (100 ≥ Efficacy (%) > 50) |
| CC(C)(C)c1ccc(-c2c(C3CCN(c4ccc5c(c4)OCCO5)CC3)oc3cc(C(CC(=O)O)C4CC4)ccc23)cc1 (stereo not shown) [Compound 215] | 100 to 500 nM | †† (150 ≥ Efficacy (%) > 100) |
| COc1ccc(F)c(N2CCC(c3oc4cc([C@H](C5CC5)C(C)C(=O)O)ccc4c3-c3cccc(C(C)(C)C)c3)CC2)c1 (stereo partly shown) [Compound 217] | 10 to 100 nM | †† (150 ≥ Efficacy (%) > 100) |
| COc1ccc(F)c(N2CCC(c3oc4cc([C@H](C5CC5)C(C)C(=O)O)ccc4c3-c3ccc(C(C)(C)C)cc3)CC2)c1 (stereo partly shown) [Compound 218] | 100 to 500 nM | ††† (Efficacy (%) > 150) |
| COc1ccc(F)c(N2CCC(c3oc4cc([C@H](C5CC5)C(F)C(=O)O)ccc4c3-c3cccc(C(C)(C)C)c3)CC2)c1 (stereo partly shown) [Compound 219] | 10 to 100 nM | † (100 ≥ Efficacy (%) > 50) |
| COc1ccc(F)c(N2CCC(c3oc4cc([C@H](C5CC5)C(F)C(=O)O)ccc4c3-c3ccc(C(C)(C)C)cc3)CC2)c1 (stereo partly shown) [Compound 220] | 100 to 500 nM | †††† |
| COc1ccc(F)c(N2CCC(c3oc4cc(C(C5CC5)C(C)(C)C(=O)O)ccc4c3-c3ccc(C(C)(C)C)cc3)CC2)c1 (stereo not shown) [Compound 222] | 100 to 500 nM | ††† (Efficacy (%) > 150) |
| COc1ccc(F)c(N2CCC(c3oc4cc(C(CC(=O)O)C5CC5)c(F)cc4c3-c3ccc(C(C)(C)C)cc3)CC2)c1 (stereo not shown) [Compound 223] | 100 to 500 nM | † (100 ≥ Efficacy (%) > 50) |
| COc1ccc(F)c(N2CCC(c3oc4cc(CCC(=O)O)ccc4c3-c3cccc(C(C)(C)C)c3)CC2)c1 [Compound 231] | 100 to 500 nM | † (100 ≥ Efficacy (%) > 50) |
| COc1ccc(F)c(N2CCC(c3oc4cc(C(C)CC(=O)O)ccc4c3-c3cccc(C(C)(C)C)c3)CC2)c1 (stereo not shown) [Compound 232] | 100 to 500 nM | † (100 ≥ Efficacy (%) > 50) |
| CCC(CC(=O)O)c1ccc2c(-c3cccc(C(C)(C)C)c3)c(C3CCN(c4cc(OC)ccc4F)CC3)oc2c1 (stereo not shown) [Compound 233] | 100 to 500 nM | †† (150 ≥ Efficacy (%) > 100) |
| COc1cccc(N2CCC(c3oc4cc([C@@H](CC(=O)O)C5CC5)ccc4c3C(=O)Nc3ccccc3F)CC2)c1 [Compound 234] | ≤ 10 nM | †† (150 ≥ Efficacy (%) > 100) |
| COc1cccc(N2CCC(c3oc4cc(C(CC(=O)O)C5CC5)ccc4c3C(=O)Nc3ccccc3C#N)CC2)c1 (stereo not shown) [Compound 236] | 10 to 100 nM | ††† (Efficacy (%) > 150) |
| COc1cccc(N2CCC(c3oc4cc(C(CC(=O)O)C5CC5)ccc4c3C(=O)Nc3ccccc3C(F)(F)F)CC2)c1 (stereo not shown) [Compound 237] | 10 to 100 nM | †† (150 ≥ Efficacy (%) > 100) |
| COc1cccc(N2CCC(c3oc4cc([C@@H](CC(=O)O)C5CC5)ccc4c3C(=O)Nc3ccccc3C(F)(F)F)CC2)c1 [Compound 238] | 10 to 100 nM | ††† (Efficacy (%) > 150) |
| COc1cccc(N2CCC(c3oc4cc([C@@H](CC(=O)O)C5CC5)ccc4c3C(=O)Nc3ccccc3C)CC2)c1 [Compound 239] | 10 to 100 nM | ††† (Efficacy (%) > 150) |
| COc1cccc(N2CCC(c3oc4cc([C@@H](CC(=O)O)C5CC5)ccc4c3C(=O)Nc3ccccc3OC(F)(F)F)CC2)c1 [Compound 240] | 100 to 500 nM | †† (150 ≥ Efficacy (%) > 100) |
